Each molecule was assayed against T1, human recombinant OX2 (hOX2) receptor (Homo sapiens, UniProt O43614) (assay: IP-1 accumulation assay (IP-One HTRF) in hOX2-CHO cells). Details: 60 min at 37° C., mean of at least two independent experiments, read-out: EC50_OX2R Category.
T1 construct: host or cells: CHO cells
T1 sequence (O43614 1-444): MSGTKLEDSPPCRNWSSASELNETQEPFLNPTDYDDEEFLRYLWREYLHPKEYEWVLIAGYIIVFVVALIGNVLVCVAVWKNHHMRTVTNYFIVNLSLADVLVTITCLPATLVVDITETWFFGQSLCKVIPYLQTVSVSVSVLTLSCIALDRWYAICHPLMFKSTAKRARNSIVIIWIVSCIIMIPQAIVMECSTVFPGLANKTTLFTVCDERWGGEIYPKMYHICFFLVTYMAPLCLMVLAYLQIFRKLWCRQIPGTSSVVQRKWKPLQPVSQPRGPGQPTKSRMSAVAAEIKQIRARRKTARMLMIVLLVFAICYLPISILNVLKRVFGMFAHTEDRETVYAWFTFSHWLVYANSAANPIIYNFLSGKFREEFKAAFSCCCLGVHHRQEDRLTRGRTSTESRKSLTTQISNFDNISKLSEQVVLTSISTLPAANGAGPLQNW
Format: cell-based
In short: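 hOX2 receptor expressed in CHO cells, seeded in suspension in HBSS with 20 mM HEPES pH 7.4, LiCl and 0.1% BSA; compounds tested as 11-point CRC (0.5% DMSO final), 60 min at 37 °C. IP-1 read by HTRF (665/615 ratio) after 60 min lysis at room temperature; response as % of maximal OX-A response, EC50 by four-parameter logistic fit, mean of ≥2 experiments in duplicate.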

**Q.** `C[C@@H]1C[C@@]2(COCC(=O)N2)[C@H](Cc2cccc(-c3cc(F)cc(F)c3)c2F)N1S(C)(=O)=O` [Example 93, (1S,3R,5S)-2-methanesulfonyl-3-methyl-1-({2,3′,5′-trifluoro-[1,1′-biphenyl]-3-yl}methyl)-9-oxa-2,6-diazaspiro[4.5]decan-7-one] was tested. Which EC50 did it give?
**A.** Its EC50 is over 10000 nM.

**Q.** How did the EC50 turn out when `CCNC(=O)N1[C@H](C)C[C@@]2(COCC(=O)N2)[C@@H]1CO[C@H]1CC[C@@H](c2ccccc2)CC1` [Example 47, (1R,3R,5S)-N-ethyl-3-methyl-7-oxo-1-({[(CIS)-4-phenylcyclohexyl]oxy}methyl)-9-oxa-2,6-diazaspiro[4.5] decane-2-carboxamide] was run?
**A.** The EC50 was under 100 nM.

**Q.** Which EC50 does the source give for `CCNC(=O)N1CCC[C@@]2(COC(C)C(=O)N2)[C@@H]1CO[C@H]1CC[C@@H](c2ccccc2)CC1` (single isomer, unassigned) [Example 40] here?
**A.** Its EC50 is under 100 nM.

**Q.** `O=C1N[C@]2(CCN(C(=O)OCC(F)F)[C@H]2Cc2cccc(-c3cc(F)cc(F)c3)c2F)COC1F` (single isomer, unassigned) [Example 74] was tested. Which EC50 did it give?
**A.** The EC50 was 1000 to 10000 nM.

**Q.** With `O=C1N[C@@]2(CCCN(C(=O)[C@H]3C[C@@H](F)C3)[C@@H]2CO[C@H]2CC[C@@H](c3ccccc3)CC2)CCO1` (single isomer, unassigned) [Example 67] as the molecule, how does the EC50 read?
**A.** Its EC50 is over 10000 nM.

**Q.** How did the EC50 turn out when `CCNC(=O)N1CCCC2(COCC(=O)N2)C1CO[C@H]1CC[C@@H](c2ccccc2)CC1` (mixture of isomers) [Example 1, (CIS)-N-ethyl-2-oxo-7-({[(CIS)-4-phenylcyclohexyl]oxy}methyl)-4-oxa-1,8-diazaspiro[5.5]undecane-8-carboxamide] was run?
**A.** The EC50 was under 100 nM.

**Q.** How did the EC50 turn out when `O=C1N[C@@]2(CCN(C(=O)OCC(F)F)[C@@H]2Cc2cccc(-c3cc(F)cc(F)c3)c2F)COC1F` (single isomer, unassigned) [Example 75] was run?
**A.** Its EC50 is over 10000 nM.

**Q.** Which EC50 does the source give for `CCNC(=O)N1CCCC2(COCC(=O)N2)C1COC1CCN(c2ncc(F)cn2)CC1` (racemic) [Example 76, rel-(6S,7R)-N-ethyl-7-({[1-(5-fluoropyrimidin-2-yl)piperidin-4-yl]oxy}methyl)-2-oxo-4-oxa-1,8-diazaspiro[5.5]undecane-8-carboxamide] here?
**A.** The EC50 was 100 to 1000 nM.

**Q.** `CCNC(=O)N1CCCC2(CCCS(=O)(=O)N2)C1CO[C@H]1CC[C@@H](c2ccccc2)CC1` (mixture of isomers) [Example 37, rel-(6R,7R)-N-ethyl-2,2-dioxo-7-({[(CIS)-4-phenylcyclohexyl]oxy}methyl)-2λ^6-thia-1,8-diazaspiro[5.5] undecane-8-carboxamide] was tested. Which EC50 did it give?
**A.** The EC50 was 100 to 1000 nM.

**Q.** `C[C@@H]1C[C@@]2(COCC(=O)N2)[C@H](CO[C@H]2CC[C@@H](c3ccccc3)CC2)N1C(=O)C1CCC1` [Example 58, (1R,3R,5S)-2-cyclobutanecarbonyl-3-methyl-1-({[(CIS)-4-phenylcyclohexyl]oxy}methyl)-9-oxa-2,6-diazaspiro [4.5]decan-7-one] was tested. Which EC50 did it give?
**A.** The EC50 was under 100 nM.

**Q.** Which EC50 does the source give for `CN1CC(=O)NC2(CCCN(C(=O)OCC(F)F)C2CO[C@H]2CC[C@@H](c3ccccc3)CC2)C1` (mixture of isomers) [Example 56, 2,2-difluoroethyl-rel-(6R,7R)-4-methyl-2-oxo-7-({[(CIS)-4-phenylcyclohexyl]oxy}methyl)-1,4,8-triazaspiro [5.5]undecane-8-carboxylate] here?
**A.** Its EC50 is 100 to 1000 nM.

**Q.** With `C[C@@H]1C[C@@]2(COCC(=O)N2)[C@H](Cc2cccc(-c3cc(F)cc(F)c3)c2F)N1C(=O)C1CC(F)(F)C1` [Example 86, (1S,3R,5S)-2-(3,3-difluorocyclobutanecarbonyl)-3-methyl-1-({2,3′,5′-trifluoro-[1,1′-biphenyl]-3-yl}methyl)-9-oxa-2,6-diazaspiro[4.5]decan-7-one] as the molecule, how does the EC50 read?
**A.** The EC50 was 100 to 1000 nM.

**Q.** How did the EC50 turn out when `O=C1COCC2(CCCN(C(=O)OCC(F)F)C2COC2CCN(c3ncc(F)cn3)CC2)N1` (racemic) [Example 77, 2,2-difluoroethyl-rel-(6S,7R)-7-({[1-(5-fluoropyrimidin-2-yl)piperidin-4-yl]oxy}methyl)-2-oxo-4-oxa-1,8-diazaspiro[5.5]undecane-8-carboxylate] was run?
**A.** Its EC50 is 1000 to 10000 nM.

**Q.** With `O=C1COCC2(CCN(C(=O)[C@H]3C[C@@H](F)C3)C2Cc2cccc(-c3cc(F)cc(F)c3)c2F)N1` (mixture of isomers) [Example 71, rel-(1S,5S)-2-[(1s,3s)-3-fluorocyclobutanecarbonyl]-1-({2,3′,5′-trifluoro-[1,1′-biphenyl]-3-yl}methyl)-9-oxa-2,6-diazaspiro[4.5]decan-7-one] as the molecule, how does the EC50 read?
**A.** Its EC50 is 100 to 1000 nM.

**Q.** `C[C@@H]1C[C@@]2(COCC(=O)N2)[C@H](CO[C@H]2CC[C@@H](c3ccccc3)CC2)N1C(=O)OCC(F)F` [Example 61, 2,2-difluoroethyl (1R,3R,5S)-3-methyl-7-oxo-1-({[(CIS)-4-phenylcyclohexyl]oxy}methyl)-9-oxa-2,6-diazaspiro [4.5]decane-2-carboxylate] was tested. Which EC50 did it give?
**A.** Its EC50 is under 100 nM.

**Q.** `COC(=O)N1CCCC2(COCC(=O)N2)C1CO[C@H]1CC[C@@H](c2ccccc2)CC1` (mixture of isomers) [Example 4, Methyl (CIS)-2-oxo-7-({[(CIS)-4-phenylcyclohexyl]oxy}methyl)-4-oxa-1,8-diazaspiro[5.5]undecane-8-carboxylate] was tested. Which EC50 did it give?
**A.** Its EC50 is 1000 to 10000 nM.

**Q.** With `CCNC(=O)N1CCC[C@@]2(CCOC(=O)N2)[C@@H]1CO[C@H]1CC[C@@H](c2ccccc2)CC1` (single isomer, unassigned) [Example 14] as the molecule, how does the EC50 read?
**A.** Its EC50 is under 100 nM.

**Q.** `CCN(C)C(=O)N1[C@H](C)C[C@@]2(COCC(=O)N2)[C@@H]1Cc1cccc(-c2cc(F)cc(F)c2)c1F` [Example 87, (1S,3R,5S)-N-ethyl-N,3-dimethyl-7-oxo-1-({2,3′,5′-trifluoro-[1,1′-biphenyl]-3-yl}methyl)-9-oxa-2,6-diazaspiro[4.5]decane-2-carboxamide] was tested. Which EC50 did it give?
**A.** Its EC50 is 100 to 1000 nM.

**Q.** With `CCNC(=O)N1CC[C@@]2(COCC(=O)N2)[C@@H]1CO[C@H]1CC[C@@H](c2ccccc2)CC1` (single isomer, unassigned) [Example 16] as the molecule, how does the EC50 read?
**A.** Its EC50 is 100 to 1000 nM.

**Q.** Which EC50 does the source give for `CCNC(=O)N1[C@H](C)C[C@]2(COCC(=O)N2)[C@H]1CO[C@H]1CC[C@@H](c2ccccc2)CC1` [Example 48, (1S,3R,5R)-N-ethyl-3-methyl-7-oxo-1-({[(CIS)-4-phenylcyclohexyl]oxy}methyl)-9-oxa-2,6-diazaspiro[4.5] decane-2-carboxamide] here?
**A.** Its EC50 is over 10000 nM.

**Q.** `C[C@@H]1C[C@@]2(COCC(=O)N2)[C@H](CO[C@H]2CC[C@@H](c3ccccc3)CC2)N1C(=O)N1CC(F)(F)C1` [Example 52, (1R,3R,5S)-2-(3,3-difluoroazetidine-1-carbonyl)-3-methyl-1-({[(CIS)-4-phenylcyclohexyl]oxy}methyl)-9-oxa-2,6-diazaspiro[4.5]decan-7-one] was tested. Which EC50 did it give?
**A.** Its EC50 is 1000 to 10000 nM.

**Q.** For `COC(=O)N1CCCC2(CCC(=O)N2)C1Cc1cccc(-c2ccccc2)c1` (mixture of isomers) [Example 28, Methyl 6-({[1,1′-biphenyl]-3-yl}methyl)-2-oxo-1,7-diazaspiro[4.5]decane-7-carboxylate], which EC50 is on record?
**A.** Its EC50 is over 10000 nM.

**Q.** Which EC50 does the source give for `CCNC(=O)N1CCC[C@@]2(CCCC(=O)N2)[C@@H]1CO[C@H]1CC[C@@H](c2ccccc2)CC1` (single isomer, unassigned) [Example 35] here?
**A.** The EC50 was under 100 nM.

**Q.** How did the EC50 turn out when `CCNC(=O)N1CCCC2(COCS(=O)(=O)N2)C1CO[C@H]1CC[C@@H](c2ccccc2)CC1` (mixture of isomers) [Example 36, rel-(6S,7R)-N-ethyl-2,2-dioxo-7-({[(CIS)-4-phenylcyclohexyl]oxy}methyl)-4-oxa-2λ^6-thia-1,8-diazaspiro[5.5] undecane-8-carboxamide] was run?
**A.** The EC50 was 100 to 1000 nM.

**Q.** Which EC50 does the source give for `O=C1COC[C@]2(CCN(C(=O)[C@H]3C[C@@H](F)C3)[C@@H]2Cc2cccc(-c3cc(F)cc(F)c3)c2F)N1` (single isomer, unassigned) [Example 73] here?
**A.** Its EC50 is over 10000 nM.

**Q.** With `O=C1NC2(CCCN(C(=O)OCC(F)F)C2CO[C@H]2CC[C@@H](c3ccccc3)CC2)CCO1` (mixture of isomers) [Example 65, 2,2-difluoroethyl-rel-(6R,7R)-2-oxo-7-({[(CIS)-4-phenylcyclohexyl]oxy}methyl)-3-oxa-1,8-diazaspiro[5.5] undecane-8-carboxylate] as the molecule, how does the EC50 read?
**A.** Its EC50 is 100 to 1000 nM.

**Q.** How did the EC50 turn out when `CCNC(=O)N1CCCC2(COC(=O)N2)C1CO[C@H]1CC[C@@H](c2ccccc2)CC1` (mixture of isomers) [Example 10] was run?
**A.** The EC50 was 1000 to 10000 nM.

**Q.** How did the EC50 turn out when `COC(=O)N1CCC[C@]2(COCC(=O)N2)[C@H]1CO[C@H]1CC[C@@H](c2ccccc2)CC1` (single isomer, unassigned) [Example 5] was run?
**A.** The EC50 was over 10000 nM.

**Q.** `O=C1NC2(CCCN(CC(F)(F)F)C2CO[C@H]2CC[C@@H](c3ccccc3)CC2)CCO1` (mixture of isomers) [Example 68, rel-(6R,7R)-7-({[(CIS)-4-phenylcyclohexyl]oxy}methyl)-8-(2,2,2-trifluoroethyl)-3-oxa-1,8-diazaspiro[5.5] undecan-2-one] was tested. Which EC50 did it give?
**A.** Its EC50 is over 10000 nM.

**Q.** Which EC50 does the source give for `CN1CCC2(CCCN(C(=O)OCC(F)F)C2CO[C@H]2CC[C@@H](c3ccccc3)CC2)NC1=O` (mixture of isomers) [Example 57, 2,2-difluoroethyl-rel-(6R,7R)-3-methyl-2-oxo-7-({[(CIS)-4-phenylcyclohexyl]oxy}methyl)-1,3,8-triazaspiro [5.5]undecane-8-carboxylate] here?
**A.** Its EC50 is over 10000 nM.

**Q.** How did the EC50 turn out when `O=C1N[C@]2(CCCN(C(=O)[C@H]3C[C@@H](F)C3)[C@H]2CO[C@H]2CC[C@@H](c3ccccc3)CC2)CCO1` (single isomer, unassigned) [Example 66] was run?
**A.** Its EC50 is under 100 nM.

From patent US20240254143A1, “OREXIN RECEPTOR AGONISTS AND USES THEREOF” (JAZZ PHARMACEUTICALS IRELAND LIMITED, priority 2021, published 2024)
